Test results from patent US12281329B2, “Compositions and methods for immune cell modulation in adoptive immunotherapies” (Fate Therapeutics, Inc., priority 2016, dated 2025).
Structures can show the parent of a compound that is named as a salt.

What was measured:
T cells = assay: In vitro T cell culture compound screen, flow cytometry for CCR7+CD62L+ cells; type: cell-based, human; conditions: for CD8 Hit / CD4 Hit: 10 μM, about 6 days, anti-CD3/anti-CD28 beads, viability and cell number Z-score > −1; for CD8 Hit: hit: Z-score > +2 for percent or relative number CCR7+CD62L+ in viable CD8+; for CD4 Hit: hit: Z-score > +2 for percent or relative number CCR7+CD62L+ in viable CD4+
From the text: In Vitro T Cell Culture. Fresh leukopaks (AllCells, Alameda, CA) were obtained from healthy donors, from which T cells were negatively selected using the EasySep Human T cell Enrichment Kit (Stem Cell Technologies, Vancouver, Canada). The freshly isolated T cells were aliquoted and cryopreserved. On the day the screens were initiated, T cells were thawed and washed into X-Vivo 15 with 5% human AB serum, IL-2, pen/strep, and additional supplements. Cells were dispensed into flat-bottom 384-well plates at 5×10^5 cells/ml with anti-CD3/Anti-CD28 dynabeads (ThermoFisher, Waltham, MA) at a 3:1 bead-to-cell ratio. Individual compounds were added at a final concentration of 10 μM to each well from column 3 to column 22 of each plate. Positive and negative controls were added to additional wells. Cells were incubated for about 6 days at 37 degrees with 5% CO2.
Flow Cytometry. On Day 6 of culture, cells were stained with a fixable viability marker and fluorophore-conjugated antibodies: CD3, CD4, CD8, CD45RA, CD45RO, CD62L, CCR7, CD27, and CD122 (BD Biosciences, San Jose, CA; and BioLegend, San Diego, CA). Fluorescent absolute counting beads (Spherotech, Lake Forest, IL) were added just prior to acquisition. Data acquisition was performed on a BD Fortessa X-20 (BD Biosciences) and data were analyzed using Treestar software (FlowJo, Ashland, OR) and Spotfire (Tibco, Boston, MA).
These cells are characterized by expression of CCR7 and CD62L. Therefore, cells co-expressing both of these identifying markers were evaluated. Within the viable CD4+ population and viable CD8+ population, the percent of cells co-expressing CCR7 and CD62L was determined. The expression of either CD62L or CCR7 on T cells, as indicative of the desired T cell subsets, have been described as having favorable functional characteristics for CAR-T cell therapy, and potentially other adoptive T cell therapies.
The number of events in each of these gates relative to the number of absolute counting beads in each sample was calculated, defining a relative measure of the absolute number of naïve, stem cell memory, or central memory T cells within the CD4+ and/or CD8+ populations. A z-Score relative to the screened compound samples within each 384-well plate was calculated for each of these four values: 1) percent CCR7+CD62L+ in CD4+, 2) percent CCR7+CD62L+ in CD8+, 3) absolute relative number of CCR7+CD62L+ in CD4+, and 4) absolute relative number of CCR7+CD62L+ in CD8+(FIGS. 1A and 1B). Z-scores were also calculated for the percent viability of all cells within each sample and the relative absolute number of cells within each sample. A “Z-Score” is a statistical measurement of a score's relationship to the mean in a group of scores. AZ-score of 0 means the score is the same as the mean. AZ-score can also be positive or negative, indicating whether it is above or below the mean and by how many standard deviations.

K562 cells = assay: NK cell cytotoxicity assay, K562 target cells; type: cell-based; conditions: 4 hours; NK cells overnight 10 ng/mL IL-15 only or 7 day IL-15 + 5 μM CHIR99021
Method: (§1) NK Cell Cytotoxicity Assay: Cytotoxicity was determined using a flow cytometry based method based on a previously published method (Kim, et al. J Immunol Methods. 2007 Aug. 31; 325(1-2): 51-66). NK cells were co-cultured with e450-proliferation dye-labelled targets for 4 hours. CellEvent™ Caspase-3/7 Green Flow Cytometry Assay Kit (Lifer Technologies) was used to assay for cell death among target cells, and samples were read on a BD LSRFortessa cytometer. Killing of SKOV-3 targets was quantified using the Incucyte Zoom instrument. SKOV-3 cells were transiently transduced with NucLight-Red BacMam reagent (Essen Biosciences) and co-cultured with the indicated NK cell populations for 74 hours, with images taken on two hour intervals. Caspase 3/7 activity was monitored to indicate target cells undergoing apoptosis using the CellEvent™ Caspase-3/7 Green Detection Reagent. The number of target cells was normalized to SKOV-3 cells cultured alone, and targets undergoing apoptosis were quantified based on caspase 3/7 activity.
The ability of GSK3 inhibition to enhance cytotoxicity of NK cells isolated directly from donors was assessed using in vitro killing assays. […] depleted PBMC population was treated overnight with 10 ng/mL IL-15 only (primed), or a 7 day culture combination of 10 ng/mL IL-15 and 5 μM CHIR99021. The target cells for the killing assays included K562 cells, CD20+ Raji cells, HER2+ SKOV3 cells and HER2+A549 cells. The E:T (Effector:Target) ratio applied to each assay ranged from 0.1, 0.5, 1, 5 to 10. After the target cells were incubated with the differently treated NK cells for 4 hours, the respective percentage of specific killing (target cell lysis) was calculated. […] Raji cells are less prone to NK mediated cytotoxicity.
The ability of STING agonist to enhance cytotoxicity of GSK3i multiday modulated NK cells was assessed using in vitro killing assays. […]

CD20+ Raji cells = assay: NK cell cytotoxicity assay, Raji target cells; type: cell-based, human; conditions: 4 hours; NK cells overnight IL-15 only or 7 days IL15 + GSK3i
Method: as §1
The ability of GSK3 inhibition to enhance cytotoxicity of NK cells isolated directly from donors was assessed using in vitro killing assays. […] After the target cells were incubated with the differently treated NK cells for 4 hours, the respective percentage of specific killing (target cell lysis) was calculated. […]

[1] = at least in viable CD8+ population
[2] = in both viable CD4+ population and viable CD8+ population

Row | Compound | CD8 Hit (T cells) | number or ratio of cells co-expressing CCR7 and CD62L (T cells; [1]) | CD4 Hit (T cells) | number or ratio of cells co-expressing CCR7 and CD62L (T cells; [2]) | E:T50 (E:T ratio when there is 50% of target cell lysis), K562 killing assay (K562 cells) | E:T50, Raji cells (CD20+ Raji cells)
1 | 2-Naphthacenecarboxamide, 7-chloro-4-(dimethylamino)-1,4,4a,5,5a,6,11,12a-octahy | CD8 | increased |  |  |  | 
2 | CCC(CO)Nc1nc(NCc2ccccc2)c2ncn(C(C)C)c2n1 (stereo in doubt) [Roscovitine, (S)-Isomer] |  | increased | CD4 |  |  | 
3 | CCCc1c(-c2ccc(O)cc2)nn(-c2ccc(O)cc2)c1-c1ccc(O)cc1 [1,3,5-tris(4-hydroxyphenyl)-4-propyl-1H-pyrazole] |  | increased | CD4 |  |  | 
4 | N.S=C(S)N1CCCC1 [1-Pyrrolidinecarbodithioic acid, ammonium salt] |  | increased | CD4 |  |  | 
5 | Nc1ncn([C@@H]2O[C@H](CO)[C@@H](O)[C@H]2O)c(=O)n1 [5-Azacytidine] | CD8 |  | CD4 | increased |  | 
6 | Sc1ncnc2nc[nH]c12 [6-Mercaptopurine] | CD8 |  | CD4 | increased |  | 
7 | Oc1c(Cl)cc(Cl)c2cccnc12 [8-Quinolinol, 5,7-dichloro-] | CD8 |  | CD4 | increased |  | 
8 | Oc1c(I)cc(Cl)c2cccnc12 [8-Quinolinol, 5-chloro-7-iodo-] | CD8 |  | CD4 | increased |  | 
9 | CC[n+]1c(/C=C/C=C2/N(C)c3ccccc3C2(C)C)sc2ccccc21.[I-] [AC-93253 iodide] | CD8 |  | CD4 | increased |  | 
10 | COc1ccc(-c2cc3nccn3c(Nc3ncccc3C(N)=O)n2)cc1OC [BAY 61-3606] |  | increased | CD4 |  |  | 
11 | COc1cc2nc(N3CCCN(C)CC3)nc(NC3CCN(Cc4ccccc4)CC3)c2cc1OC [BIX01294] |  | increased | CD4 |  |  | 
12 | CC[N+](C)(C)c1cccc(O)c1 [Edrophonium chloride] | CD8 | increased |  |  |  | 
13 | C[C@]12CC[C@@H]3c4ccc(O)cc4C[C@@H](CCCCCCCCC[S+]([O-])CCCC(F)(F)C(F)(F)F)[C@H]3[C@@H]1CC[C@@H]2O (stereo partly shown) [Fulvestrant] | CD8 | increased |  |  |  | 
14 | CC(C)C1CCC2(CO2)C2C(=O)OCC(C(=O)O)=CC12 (stereo not shown) [Heptelidic acid] | CD8 |  | CD4 | increased |  | 
15 | O=C(N/N=C/c1ccc([N+](=O)[O-])o1)c1ccc(O)cc1 [Nifuroxazide] | CD8 | increased |  |  |  | 
16 | C=CCc1cccc(/C=N/NC(=O)CN2CCN(Cc3ccccc3)CC2)c1O [PAC-1] |  | increased | CD4 |  |  | 
17 | Oc1cccc(-c2nc(N3CCOCC3)c3oc4ncccc4c3n2)c1 [PI-103] | CD8 |  | CD4 |  |  | 
18 | C=CC1=C(C)c2cc3[nH]c(cc4nc(cc5[nH]c(cc1n2)c(C)c5CCC(=O)O)C(CCC(=O)O)=C4C)c(C)c3C=C [Protoporphyrin IX disodium] |  | increased | CD4 |  |  | 
19 | CN(C)c1ccc(C=C2C(=O)Nc3ccccc32)cc1 [SU 4312] | CD8 | increased |  |  |  | 
20 | CN[C@H]1CC[C@@H](c2ccc(Cl)c(Cl)c2)c2ccccc21 [Sertraline] | CD8 |  | CD4 |  |  | 
21 | CCCc1nc2c(C)cc(-c3nc4ccccc4n3C)cc2n1Cc1ccc(-c2ccccc2C(=O)O)cc1 [Telmisartan] |  | increased | CD4 |  |  | 
22 | CC(C)(C)c1ccc(C(O)CCCN2CCC(C(O)(c3ccccc3)c3ccccc3)CC2)cc1 (stereo not shown) [Terfenadine] |  | increased | CD4 |  |  | 
23 | C/C=C(/C)C(=O)O[C@H]1C(C)=C2[C@H]([C@@H]1OC(=O)CCCCCCC)[C@@](C)(OC(C)=O)C[C@H](OC(=O)CCC)[C@@]1(O)[C@H]2OC(=O)[C@@]1(C)O [Thapsigargin] | CD8 | increased |  |  |  | 
24 | O=C(O)Cc1cc(I)c(Oc2ccc(O)c(I)c2)c(I)c1 [Tiratricol] | CD8 |  | CD4 | increased |  | 
25 | NC1CCN(c2nc3c(cc2F)c(=O)c(C(=O)O)cn3-c2ccc(F)cc2F)C1 (stereo not shown) [Tosufloxacin hydrochloride] |  | increased | CD4 |  |  | 
26 | N#CC(=C(/N)Sc1ccccc1N)/C(C#N)=C(\N)Sc1ccccc1N [U0126] |  | increased | CD4 |  |  | 
27 | Diethylenetriaminepentaacetic acid, penta sodium | CD8 |  | CD4 | increased |  | 
28 | IL15: recombinant human IL-15, cytokine used alone as comparator culture (10 ng/mL) |  |  |  |  | about 10 | ~100
